Data as given in PubChem BioAssay (NCI).
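Dose response: 5 concentrations. Exposure: 48 h. Format: 96-well plates. Endpoint: linear interpolation; highest concentration if not reached. GI50 = concentration required for 50% inhibition of growth. TGI: concentration producing complete growth inhibition.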

What was measured:
Assay in all cases: inhibition of tumour cell growth, NCI panel, 48 h
[1] = tested on: EKVX NSCLC
[2] = tested on: KM12 colon
[3] = tested on: M14 melanoma
[4] = tested on: NCI-H460 lung
[5] = tested on: NCI-H522 lung
[6] = tested on: OVCAR-8 ovarian
[7] = tested on: SF-295 CNS
[8] = tested on: SF-539 CNS
[9] = tested on: SK-MEL-5 melanoma
[10] = tested on: MCF7 breast

SMILES	TGI [1] [µM]	TGI [2] [µM]	TGI [3] [µM]	TGI [4] [µM]	TGI [5] [µM]	TGI [6] [µM]	TGI [7] [µM]	TGI [8] [µM]	TGI [9] [µM]	GI50 [2] [µM]	GI50 [3] [µM]	GI50 [10] [µM]	TGI [10] [µM]	GI50 [4] [µM]	GI50 [5] [µM]	GI50 [6] [µM]	GI50 [7] [µM]	GI50 [8] [µM]	GI50 [9] [µM]	GI50 [1] [µM]
c1ccc2c(c1)N=C(c1cccc3ccccc13)CC(c1ccc3c(c1)OCO3)S2 (stereo not given)	> 100	> 100	> 100	> 100	> 100	> 100	> 100	> 100	> 100	–	–	–	–	–	–	–	–	–	–	–
C=C(C(=C)P(=S)(c1ccccc1)c1ccccc1)P(=S)(c1ccccc1)c1ccccc1	> 100	> 100	> 100	> 100	> 100	> 100	> 100	> 100	> 100	–	–	–	–	–	–	–	–	–	–	–
Cc1ccc(Cl)c(Nc2ccccc2C(=O)O)c1Cl	–	77.1	62.6	69.4	87.2	> 100	76	51.3	33.5	29.3	21.3	34.2	> 100	25.9	28.3	29.6	25.3	23.6	18.2	–
COC(=O)C1=C(C(=O)OC)C2(C)Nc3ccccc3C2=C(c2ccccc2)C1 (stereo not given)	70.5	30.3	31.8	42.9	35.9	61.7	58	37.5	29.9	–	–	–	–	–	–	–	–	–	–	–
CC#CC1C2CCCC1(CSc1ccccc1)NC(=O)O2 (stereo not given)	> 100	> 100	> 100	> 100	> 100	> 100	> 100	> 100	> 100	–	–	–	–	–	–	–	–	–	–	–
CC(C)NC(=O)CCN(C(=O)O)S(=O)(=O)c1ccc(NC(=O)c2ccccc2)cc1	> 100	> 100	> 100	> 59.7	> 100	> 94.7	> 100	67.5	> 100	–	–	–	–	–	–	–	–	–	–	–
CC(=O)[CH-]C(=O)c1ccccc1.CC(=O)[CH-]C(=O)c1ccccc1.C[C@]12CCC(=O)C=C1CC[C@@H]1C2CC[C@@]2(C)C1CC[C@@H]2[O-].C[C@]12CCC(=O)C=C1CC[C@@H]1C2CC[C@@]2(C)C1CC[C@@H]2[O-].Cl.[Ti+4] (stereo not given in full)	–	66.2	41.8	30.9	34.8	93.6	–	–	32	20.3	15.9	–	–	14.8	13.6	22.6	–	–	11.3	–
CCNC(=O)O/N=C1\CCC2[C@@H]3CC=C4C[C@@H](OC5CCCCO5)CC[C@]4(C)C3CC[C@]12C (stereo not given in full)	5.78	17	–	6.21	–	18.2	7.11	> 100	> 100	–	–	–	–	–	–	–	–	–	–	–
COc1cc(-c2cc(-c3cc(OC)c(OC)c(OC)c3)nc3nc(N)[nH]c(=O)c23)ccc1Oc1ccnc2cc(Cl)ccc12	–	14.9	–	37.7	15.5	79.5	85.5	3.18	13.3	0.548	–	0.762	> 100	3.45	2.13	3.17	4.52	1.16	2.93	–
COc1ccc(/C=C/C(=O)c2ccc(OC)c(OC)c2)cc1O	–	13.3	23.3	11.8	12.4	10.9	–	7.34	18.8	3.57	10.9	4.58	16.2	3.44	3.42	2.98	–	2.49	5.9	–
Clc1cc(Cl)cc(N2N=C(c3cccc(Nc4ccncc4)c3)CC2c2ccc3c(c2)OCO3)c1 (stereo not given)	3.2	3.35	3.37	3.34	–	–	3.2	3.31	3.21	1.78	1.75	1.89	4.17	1.76	–	–	1.77	1.84	1.77	1.61
OCCN1CCN2C=C(C3CCCC4N(CCO)CCN34)CCC21 (stereo not given)	> 100	> 100	> 100	> 100	> 70	> 100	> 100	> 92.2	> 100	–	–	–	–	–	–	–	–	–	–	–
OCc1ccc(N2CCc3ccccc3C2)cc1Cl	–	40.1	> 100	0.174	61.1	36.6	–	> 100	–	13.6	34.1	< 0.01	55.3	< 0.0179	17.2	3.66	–	41.9	–	–
Cc1ccccc1-n1c2nc(=O)n(C)c(=O)c-2nc2ccccc21	24.3	33.5	25.4	27.3	29.4	33.6	27.5	29.2	23.1	–	–	–	–	–	–	–	–	–	–	–
Cc1ccc(NC(=O)/C(Cl)=C(/Cl)C(=O)O)cc1	31.2	34.6	28.7	> 100	6.11	–	96.8	–	55.2	–	–	–	–	–	–	–	–	–	–	–
CN1CCN(C)C12C=CC=CC21CC1	> 100	> 100	> 100	> 100	> 100	> 100	> 100	> 100	> 100	–	–	–	–	–	–	–	–	–	–	–
Clc1ccc(-c2c(C3=NCCCN3)nnn2-c2ccccc2)cc1	> 100	> 100	> 100	> 100	> 100	> 100	> 100	> 100	> 100	–	–	–	–	–	–	–	–	–	–	–
NN1C(=O)C(CCO)S/C1=N/N=C1/SC(CCO)C(=O)N1N (stereo not given)	> 100	> 100	> 100	> 100	> 100	> 100	> 100	> 100	> 100	–	–	–	–	–	–	–	–	–	–	–
NNC(=O)N/N=C1\C(=O)N(c2ccc(Cl)c(Cl)c2)C(=O)C(=O)C1c1nc2ccccc2s1 (stereo not given)	> 100	> 100	> 100	> 100	> 100	> 100	> 100	> 100	> 100	–	–	–	–	–	–	–	–	–	–	–
